Literature values, collected in publication PMC8202924, “Emodepside targets SLO-1 channels of Onchocerca ochengi and induces broad anthelmintic effects in a bovine model of onchocerciasis” (PLoS Pathogens, 2021).

System: O. volvulus
Conditions: from ~10 years to 2–3 years; cited from earlier work

For C[C@H]1c2cccc(O)c2C(=O)C2=C(O)[C@]3(O)C(=O)C(C(N)=O)=C(O)[C@@H](N(C)C)[C@@H]3[C@@H](O)[C@@H]21 [doxycycline], the “Reduction in worm lifespan” value is listed as 70–80%.
